19 molecules from US9796700B2 (Celgene CAR LLC, priority 2013, dated 2017) can be followed below.

In test [1] the target is MEK1 activated ERK1 (Homo sapiens (Human), UniProt P27361). The experiment in a line: Omnia continuous-read kinase assay for potency against MEK1 activated ERK1. The format is biochemical. The following applies: MEK1 activated ERK1, WT, ATP at KM. In short, it runs like this: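 Apparent IC50 came from initial reaction slopes (RFU vs time) plotted against log inhibitor with a variable-slope fit. Reactions were started with ERK1 (4 nM final) added to 50 μM ATP, roughly at its appKM, and 10 μM Sox-conjugated ST17 peptide in 20 mM Tris pH 7.5, 5 mM MgCl2. Fluorescence was monitored every 71 seconds.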

Test [2] deals with Erk1 (Homo sapiens (Human), UniProt P27361). The experiment in a line: Protein Mass Modification Assay (intact protein MALDI). The format is binding. The gist of the method: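 Percent covalent modification comes from the intact-protein MALDI centroid mass shift, treated versus control, divided by compound MW. Before analysis, human Erk1 was exposed to compound at 10-fold excess over protein for 60 min at room temperature.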
Sequence of Erk1 (P27361 whole entry, looked up): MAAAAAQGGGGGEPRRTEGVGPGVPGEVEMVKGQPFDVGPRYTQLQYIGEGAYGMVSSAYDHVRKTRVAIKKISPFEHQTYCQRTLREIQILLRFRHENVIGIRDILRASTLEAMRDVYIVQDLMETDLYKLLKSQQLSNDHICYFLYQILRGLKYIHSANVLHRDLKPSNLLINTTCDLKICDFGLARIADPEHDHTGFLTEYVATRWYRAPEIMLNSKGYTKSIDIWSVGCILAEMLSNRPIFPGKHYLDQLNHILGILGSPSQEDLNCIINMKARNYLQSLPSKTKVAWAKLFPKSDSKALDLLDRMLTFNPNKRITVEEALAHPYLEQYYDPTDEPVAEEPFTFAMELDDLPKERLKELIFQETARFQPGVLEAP

Sequence of MEK1 activated ERK1 (P27361 whole entry): as the sequence (P27361 whole entry, looked up) above

In the case of `C=CC(=O)Nc1ccccc1Nc1nc(Nc2ccc(N3CCN(C(C)=O)CC3)cc2OC)ncc1F` [Compound I-153, N-(2-((2-((4-(4-acetylpiperazin-1-yl)-2-methoxyphenyl)amino)-5-fluoropyrimidin-4-yl)amino)phenyl)acrylamide], the IC50 (in general, the concentration needed to halve the response being measured) in test [1] was greater than 1000 nM. In addition, the “ERK1 Mass Mod (%)” value in test [2] was “F (provided a mass modification of 31-69%)”.

With `C=CC(=O)Nc1ccccc1Nc1ccnc(Nc2ccc(N3CCN(C(C)=O)CC3)cc2OC)n1` [Compound I-154, N-(2-((2-((4-(4-acetylpiperazin-1-yl)-2-methoxyphenyl)amino)pyrimidin-4-yl)amino)phenyl)acrylamide], the IC50 in test [1] is greater than 1000 nM. Also, in test [2], the “ERK1 Mass Mod (%)” value was “G (proived a mass modification ≦30%)”.

Turning to `C=CC(=O)Nc1cc(OC)ccc1Nc1nc(Nc2ccc(-n3ccnc3)cc2C#N)ncc1Cl` [Compound I-157, N-(2-((5-chloro-2-((2-cyano-4-(1H-imidazol-1-yl)phenyl)amino)pyrimidin-4-yl)amino)-5-methoxyphenyl)acrylamide], the IC50 in test [1] is greater than 1000 nM. Further, the “ERK1 Mass Mod (%)” value in test [2] is reported as “F (provided a mass modification of 31-69%)”.

`C=CC(=O)Nc1cc(OC)ccc1Nc1nc(Nc2ccc(N3CCC[C@H]3CO)cc2C(F)(F)F)ncc1Cl` [Compound I-158, (S)—N-(2-((5-chloro-2-((4-(2-(hydroxymethyl)pyrrolidin-1-yl)-2-(trifluoromethyl)phenyl)amino)pyrimidin-4-yl)amino)-5-methoxyphenyl)acrylamide]: the concentration for half-maximal inhibition (IC50) in test [1] is greater than 1000 nM. For the same molecule, in test [2], the “ERK1 Mass Mod (%)” value is “F (provided a mass modification of 31-69%)”.

For `C=CC(=O)Nc1cc(OC)ccc1Nc1nc(Nc2ccc(N3CCC[C@H]3CO)cc2OC)ncc1Cl` [Compound I-159, (S)—N-(2-((5-chloro-2-((4-(2-(hydroxymethyl)pyrrolidin-1-yl)-2-methoxyphenyl)amino)pyrimidin-4-yl)amino)-5-methoxyphenyl)acrylamide], the IC50 in test [1] was greater than 1000 nM. Besides, the “ERK1 Mass Mod (%)” value in test [2] is reported as “F (provided a mass modification of 31-69%)”.

As for `C=CC(=O)Nc1ccccc1Nc1nc(Nc2ccc(N3CCC[C@H]3CO)cc2C#N)ncc1Cl` [Compound I-160, (S)—N-(2-((5-chloro-2-((2-cyano-4-(2-(hydroxymethyl)pyrrolidin-1-yl)phenyl)amino)pyrimidin-4-yl)amino)phenyl)acrylamide], the half-inhibitory concentration (IC50) in test [1] was greater than 1000 nM. Further, in test [2], the “ERK1 Mass Mod (%)” value is “G (proived a mass modification ≦30%)”.

Take `C=CC(=O)Nc1cc(OC)ccc1Nc1nc(Nc2ccc(N3CCNCC3)cc2C#N)ncc1Cl` [Compound I-161, N-(2-((5-chloro-2-((2-cyano-4-(piperazin-1-yl)phenyl)amino)pyrimidin-4-yl)amino)-5-methoxyphenyl)acrylamide]: the half-maximal inhibitory concentration (IC50) in test [1] is greater than 1000 nM. Also, in test [2], the “ERK1 Mass Mod (%)” value is listed as “G (proived a mass modification ≦30%)”.

Regarding `C=CC(=O)Nc1cc(OC)ccc1Nc1nc(Nc2ccc(N3CCNCC3)cc2OC)ncc1Cl` [Compound I-162, N-(2-((5-chloro-2-((2-methoxy-4-(piperazin-1-yl)phenyl)amino)pyrimidin-4-yl)amino)-5-methoxyphenyl)acrylamide], the IC50 in test [1] is greater than 1000 nM. Besides, the “ERK1 Mass Mod (%)” value in test [2] is on record as “E (provided a mass modification of ≧70%)”.

Turning to `C=CC(=O)Nc1cc(OC)ccc1Nc1nc(Nc2ccc(N3CC[C@H](O)C3)cc2C#N)ncc1Cl` [Compound I-165, (S)—N-(2-((5-chloro-2-((2-cyano-4-(3-hydroxypyrrolidin-1-yl)phenyl)amino)pyrimidin-4-yl)amino)-5-methoxyphenyl)acrylamide], the 50% inhibitory concentration (IC50) in test [1] was greater than 1000 nM. Further, in test [2], the “ERK1 Mass Mod (%)” value is “F (provided a mass modification of 31-69%)”.

With `C=CC(=O)Nc1ccccc1Nc1nc(Nc2ccc(N(CCNC(=O)OC(C)(C)C)C(C)=O)cc2C(F)(F)F)ncc1Cl` [Compound I-170, tert-butyl (2-(N-(4-((4-((2-acrylamidophenyl)amino)-5-chloropyrimidin-2-yl)amino)-3-(trifluoromethyl)phenyl)acetamido)ethyl)carbamate], in test [1], the IC50 is greater than 1000 nM. Moreover, the “ERK1 Mass Mod (%)” value in test [2] is “E (provided a mass modification of ≧70%)”.

On to `C=CC(=O)Nc1ccccc1Nc1nc(Nc2ccc(N3CCC[C@@H]3CO)cc2C#N)ncc1Cl` [Compound I-171, (R)—N-(2-((5-chloro-2-((2-cyano-4-(2-(hydroxymethyl)pyrrolidin-1-yl)phenyl)amino)pyrimidin-4-yl)amino)phenyl)acrylamide], for which the IC50 in test [1] was greater than 1000 nM. Also, the “ERK1 Mass Mod (%)” value in test [2] is recorded as “E (provided a mass modification of ≧70%)”.

Turning to `C=CC(=O)Nc1ccccc1Nc1nc(Nc2ccc(N3CCC[C@H]3CO)cc2C#N)ncc1Cl` [Compound I-172, (S)—N-(2-((5-chloro-2-((2-cyano-4-(2-(hydroxymethyl)pyrrolidin-1-yl)phenyl)amino)pyrimidin-4-yl)amino)phenyl)acrylamide], the half-inhibitory concentration (IC50) in test [1] was greater than 1000 nM. For the same molecule, the “ERK1 Mass Mod (%)” value in test [2] is on record as “F (provided a mass modification of 31-69%)”.

`C=CC(=O)Nc1ccccc1Nc1nc(Nc2ccc(OCCOC)cc2OC)ncc1Cl` [Compound I-182, N-(2-((5-chloro-2-((2-methoxy-4-(2-methoxyethoxy)phenyl)amino)pyrimidin-4-yl)amino)phenyl)acrylamide]: the IC50 in test [1] was greater than 1000 nM. In addition, in test [2], the “ERK1 Mass Mod (%)” value was “E (provided a mass modification of ≧70%)”.

Take `C=CC(=O)Nc1ccccc1Nc1nc(Nc2ccc(NC(=O)OC)cc2OC)ncc1Cl` [Compound I-184, methyl (4-((4-((2-acrylamidophenyl)amino)-5-chloropyrimidin-2-yl)amino)-3-methoxyphenyl)carbamate]: the half-maximal inhibitory concentration (IC50) in test [1] was greater than 1000 nM. Further, the “ERK1 Mass Mod (%)” value in test [2] was “E (provided a mass modification of ≧70%)”.

For `C=CC(=O)NCc1ccccc1Nc1nc(Nc2cc(C(N)=O)ccc2C)ncc1Cl` [Compound I-189, 3-((4-((2-(acrylamidomethyl)phenyl)amino)-5-chloropyrimidin-2-yl)amino)-4-methylbenzamide], in test [1], the IC50 was greater than 1000 nM. For the same molecule, the “ERK1 Mass Mod (%)” value in test [2] was “G (proived a mass modification ≦30%)”.

Consider `C=CC(=O)N[C@@H]1CCCC[C@H]1Nc1nc(Nc2cc(C(=O)NOC)ccc2C)ncc1Cl` [Compound I-190, 3-((4-(((1R,2R)-2-acrylamidocyclohexyl)amino)-5-chloropyrimidin-2-yl)amino)-N-methoxy-4-methylbenzamide], for which the IC50 in test [1] was greater than 1000 nM. For the same molecule, the “ERK1 Mass Mod (%)” value in test [2] was “F (provided a mass modification of 31-69%)”.

With `C=CC(=O)Nc1ccccc1Nc1nc(Nc2cc(C(=O)NOC)ccc2C)ncc1Cl` [Compound I-191, 3-((4-((2-acrylamidophenyl)amino)-5-chloropyrimidin-2-yl)amino)-N-methoxy-4-methylbenzamide], the concentration for half-maximal inhibition (IC50) in test [1] was less than 100 nM. The “ERK1 Mass Mod (%)” value in test [2] is on record as “E (provided a mass modification of ≧70%)”.

As to `C=CC(=O)Nc1ccccc1Nc1nc(Nc2cc(C(N)=O)ccc2C#N)ncc1Cl` [Compound I-192, 3-((4-((2-acrylamidophenyl)amino)-5-chloropyrimidin-2-yl)amino)-4-cyanobenzamide], the IC50 in test [1] is less than 100 nM. Also, in test [2], the “ERK1 Mass Mod (%)” value is on record as “E (provided a mass modification of ≧70%)”.

For the molecule `C=CC(=O)Nc1ccccc1Nc1nc(Nc2cc(C(N)=O)ccc2CC)ncc1Cl` [Compound I-193, 3-((4-((2-acrylamidophenyl)amino)-5-chloropyrimidin-2-yl)amino)-4-ethylbenzamide], the IC50 in test [1] is less than 100 nM. Also, the “ERK1 Mass Mod (%)” value in test [2] is “E (provided a mass modification of ≧70%)”.
